Experimental data as given in patent publication US10434076B2, “Use of 2,5-dihydroxybenzene derivatives for treating dermatitis” (AmDerma Pharmaceuticals, LLC, priority 2006, dated 2019).
Entries after “also recorded” stand apart in the source; their conditions may differ.

What was measured:
[1] = target: Fibroblast Growth Factor-1 (FGF-1) (Homo sapiens, UniProt P05230); assay: Structural interaction with FGF-1 (diffraction of complex crystals); assay type: binding; details: electron density
Method: As of the diffraction from complex crystals of FGF-1: 2-acetoxy-5-hydroxybenzenesulfonic acid, FGF-1; 5-acetoxy-2-hydroxybenzenesulfonic acid and FGF-1: 2,5-diacetoxybenzenesulfonic acid, the complex structures were calculated and represented. In FIGS. 10, 11 and 12, representing the surface of the protein coloured according to its electrostatic potential (light grey: negative charge, dark grey: positive charge, white: areas with no charge), the interaction form of the 2-acetoxy-5-hydroxybenzenesulfonic acid, 5-acetoxy-2-hydroxybenzenesulfonic acid and 2,5-diacetoxybenzenesulfonic acid, respectively, with the FGF-1 may be observed.

[2] = test system: dermatitis induced by the application of benzalkonium chloride on the rat ears; assay: Benzalkonium chloride induced dermatitis on rat ears, Evans blue dye extravasation; assay type: in vivo; details: for percentage of the area stained in blue compared to the total area of the ear (dermatitis extent): treated vs untreated ear
Method: Dermatitis was induced by the application of benzalkonium chloride, 5% solution (w/v) (1:5 olive oil:acetone) on the entire extent of the back part of the car ([…]) in anesthetized rats. Dermatitis was induced in both ears. In the assay of 2,5-dihydroxybenzenesulfonate (DHBS), a cream containing 5% of DHBS (w/w) was applied topically only on the back part of the right ear, 30 minutes after the application of benzalkonium chloride. Fifteen minutes later, 0.5% by weight of Evans blue dye solution (400 μL per animal) was injected into the jugular vein. […] Therefore, it can be stated that topical application of 5% DHBS reduced the dermatitis extent.
This observation was confirmed upon quantification of dermatitis extent based on the area of the ear stained in blue with respect to the total area of the ear. Identically obtained photographs of the extended ears were processed in order to determine the stained area and the total area of the ear using a computer program to analyze images (Motic Image). The stained area of each ear was related to the total area to obtain the percentage of the ear affected by the dermatitis. […] 24 hours after dermatitis induction (FIG. 2B), these values were very similar.
Using the same procedure as in the former example, dermatitis was induced by the application of benzalkonium chloride, 5% solution (w/v) (1:5 olive oil:acetone) on the entire extent of the back part of the ear (40 μL/ear) in anesthetized rats. Dermatitis was induced in both ears. A cream containing 5% (w/v) of either 2-acetoxy-5-hydroxybenzenesulfonate (2A-5HBS) or 5-acetoxy-2-hydroxybenzenesulfonate (5A-2HBS) was applied topically only on the back part of the right ear, 30 minutes after the application of benzalkonium chloride. Fifteen minutes later, 0.5% (w/v) of Evans blue dye solution (400 μL per animal) was injected into the jugular vein. […] Therefore, it can be stated that topical application of 5% 2A-5HBS and 5% 5A-2HBS reduced the dermatitis extent.
This observation was confirmed upon quantification of dermatitis extent based on the area of the ear stained in blue with respect to the total area of the ear. Identically obtained photographs of the extended ears were processed in order to determine the stained area and the total area of the ear using a computer program to analyze images (Motic Image). The stained area of each car was related to the total area to obtain the percentage of the ear affected by the dermatitis.

[3] = test system: myeloperoxidase (MPO) activity; assay: Myeloperoxidase (MPO) activity in the ear after benzalkonium chloride induced dermatitis; assay type: in vivo, rat; details: for increase in MPO activity in the ear caused by dermatitis: 24 hours after induction
Method: In this same model (Hyun E et al. Br J Pharmacol, 2004), dermatitis induction has been associated to an increase in the myeloperoxidase (MPO) activity in the ear, as a marker of leukocyte infiltration in the tissue affected with dermatitis. Based on these evidences, the effect of hydroxybenzene derivatives (i the activity of the MPO in the model described in this example was established. The MPO activity was determined in the ears of control rats (without dermatitis) and in ears on which dermatitis had been induced with benzalkonium chloride and had been treated with vehicle (anhydrous glycerol), 5% DHBS cream or DABS 2.5% solution in glycerol. The ears were frozen in liquid nitrogen 24 hours after the induction of dermatitis and were kept at −80° C. until determination of MPO activity. To determine the MPO activity, the frozen ears were homogenized in phosphate buffer with 0.5% of hexadecyltrimethylammonium bromide. After several freezing/thawing/sonication cycles, the samples were centrifuged at 13,000×g during 20 minutes at 4° C. H2O2 and O-dianisidine were added into the supernatants and the absorbance was measured at 460 nm in a spectrophotometer 1 hour after incubation at room temperature. The MPO activity is expressed as absorbance units per mg of tissue.

[4] = test system: dermatitis induced by benzalkonium chloride on the ear of the rat; assay: Benzalkonium chloride induced dermatitis on rat ears, erythema and histological study; assay type: in vivo
Method: Using the same model, dermatitis was induced on both ears of two rats, following the same process described above. In this case, 30 minutes after the application of benzalkonium chloride, a rat was treated in both ears with a glycerol solution (FIG. 3A), while the other one was treated in both ears with a glycerol solution containing 2.5% (w/v) of 2,5-diacetoxybenzenesulfonate (DABS) (FIG. 3B).

[5] = topical 5% (w/v) monoester on right ear vs untreated left ear, 24 hours after induction
[6] = topical 5% monoester solution, 24 hours after induction
[7] = topical 2.5% DABS in glycerol vs vehicle, tissues fixed 24 hours after induction

Sequence of Fibroblast Growth Factor-1 (FGF-1) (P05230 whole entry, species assumed): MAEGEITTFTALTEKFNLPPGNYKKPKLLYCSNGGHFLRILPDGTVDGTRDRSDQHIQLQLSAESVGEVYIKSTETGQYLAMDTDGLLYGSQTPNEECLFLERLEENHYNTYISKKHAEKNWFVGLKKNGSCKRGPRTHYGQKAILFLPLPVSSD

| SMILES | acetoxyl groups kept when bound to FGF-1 [1] | location of the compound bound to FGF-1 [1] | blue stain extent (Evans blue dye extravasation), photographs [2, 5] | percentage of the area stained in blue compared to the total area of the ear (dermatitis extent) [2, 6] | efficacy on MPO activity relative to 5% DHBS ([3]; 2.5% DABS (half the amount of active principle) compared with 5% DHBS) | increase in MPO activity in the ear caused by dermatitis ([3]; topical 2.5% DABS solution in glycerol vs vehicle) | erythema caused by the dermatitis ([4]; topical 2.5% (w/v) DABS in glycerol vs glycerol vehicle) | granulocytes adhered to the capillary endothelial cells (histological study) [4, 7] | leukocyte infiltration (histological study) [4, 7] | tissular edema (histological study) [4, 7] | increase in MPO activity in the ear caused by dermatitis ([3]; topical 5% DHBS cream vs vehicle) | blue stain extent (Evans blue dye extravasation), photographs ([2]; topical cream 5% DHBS on right ear vs untreated left ear, 4 hours after dermatitis induction) | percentage of the area stained in blue compared to the total area of the ear (dermatitis extent) ([2]; topical cream 5% DHBS, 4 hours after induction) |
| --- | --- | --- | --- | --- | --- | --- | --- | --- | --- | --- | --- | --- | --- |
| CC(=O)Oc1ccc(O)cc1S(=O)(=O)O [2A-5HBS, 2-acetoxy-5-hydroxybenzenesulfonic acid] | keep the acetoxyl groups in positions 2, 5 and, 2 and 5, respectively | located at a site very close to the site that, as described, is occupied by the 2,5-dihydroxybenzenesulfonic acid | clearly smaller blue stain; also recorded: remarkably reduced dye extravasation | significantly reduced the percentage of the area stained in blue; also recorded: significantly reduced dermatitis extent |  |  |  |  |  |  |  |  |  |
| CC(=O)Oc1ccc(O)c(S(=O)(=O)O)c1 [5A-2HBS, 5-acetoxy-2-hydroxybenzenesulfonic acid] | keep the acetoxyl groups in positions 2, 5 and, 2 and 5, respectively | located at a site very close to the site that, as described, is occupied by the 2,5-dihydroxybenzenesulfonic acid | notably reduced; also recorded: remarkably reduced dye extravasation | significantly reduced the percentage of the area stained in blue |  |  |  |  |  |  |  |  |  |
| CC(=O)Oc1ccc(OC(C)=O)c(S(=O)(=O)O)c1 [DABS, 2,5-diacetoxybenzenesulfonic acid] | keep the acetoxyl groups in positions 2, 5 and, 2 and 5, respectively | located at a site very close to the site that, as described, is occupied by the 2,5-dihydroxybenzenesulfonic acid |  |  | slightly higher | significantly reduces | reduced benzalkonium chloride induced dermatitis; also recorded: milder | significant reduction; also recorded: not observed | reduces the edema and the leukocyte infiltration; also recorded: noticeably milder | reduces the edema; also recorded: not observed |  |  |  |
| O=S(=O)(O)c1cc(O)ccc1O [DHBS, 2,5-dihydroxybenzenesulfonic acid, reference compound] |  |  |  |  |  |  |  |  |  |  | significantly reduced | clearly smaller blue stain; also recorded: remarkably reduced dye extravasation | significantly reduced the percentage of the area stained in blue; also recorded: significantly reduced dermatitis extent |
